Assay results reported in ChEMBL document CHEMBL4402540, “Structure-Activity Relationship Studies of Small Molecule Modulators of the Staphylococcal Accessory Gene Regulator” (J Med Chem, 2020).
Where a SMILES comes first, the peptide text is derived from it. Bridges are numbered along the chain shown (N, C = ends). [ ]: non-standard residue; d: D form. The star is where a group is joined. X2 = O=C(c1ccccc1)c1ccc(OCCCC(=O)*)cc1; X1 = O=C(CCCOc1ccc(Cc2ccccc2)cc1)*; Dap = NC[C@H](N)C(=O)O

Legend:
[1] = Inhibition of AgrC-2 in Staphylococcus aureus RN9372 by beta-lactamase reporter gene assay
[2] = Inhibition of AgrC-2 in Staphylococcus aureus RN9532 by beta-lactamase reporter gene assay
[3] = Agonist activity at AgrC-4 in Staphylococcus aureus RN9371 by beta-lactamase reporter gene assay
[4] = molecular target: T1, Chloramphenicol acetyltransferase (Staphylococcus epidermidis) (UniProt D2JCN2); assay: Activation of Chloramphenicol acetyltransferase activity in Staphylococcus epidermidis Tu3298 at 200 nM and measured every 15 sec for 20 mins (reference value: 12.5 U/mg)
T1 sequence (whole entry): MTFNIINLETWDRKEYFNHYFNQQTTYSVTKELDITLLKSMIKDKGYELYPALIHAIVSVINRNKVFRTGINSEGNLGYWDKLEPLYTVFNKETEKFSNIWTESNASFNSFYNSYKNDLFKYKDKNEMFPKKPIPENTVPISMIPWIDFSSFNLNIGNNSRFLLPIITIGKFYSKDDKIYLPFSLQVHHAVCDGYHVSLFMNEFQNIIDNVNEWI

[5] = molecular target: T2, Receptor-histidine kinase AgrC (Staphylococcus aureus, UniProt O07911); assay: Inhibition of AgrC in mid-exponential phase Staphylococcus aureus RN6390B assessed as beta-lactamase activity incubated for 80 mins by spectrophotometric method
T2 sequence (O07911 whole entry): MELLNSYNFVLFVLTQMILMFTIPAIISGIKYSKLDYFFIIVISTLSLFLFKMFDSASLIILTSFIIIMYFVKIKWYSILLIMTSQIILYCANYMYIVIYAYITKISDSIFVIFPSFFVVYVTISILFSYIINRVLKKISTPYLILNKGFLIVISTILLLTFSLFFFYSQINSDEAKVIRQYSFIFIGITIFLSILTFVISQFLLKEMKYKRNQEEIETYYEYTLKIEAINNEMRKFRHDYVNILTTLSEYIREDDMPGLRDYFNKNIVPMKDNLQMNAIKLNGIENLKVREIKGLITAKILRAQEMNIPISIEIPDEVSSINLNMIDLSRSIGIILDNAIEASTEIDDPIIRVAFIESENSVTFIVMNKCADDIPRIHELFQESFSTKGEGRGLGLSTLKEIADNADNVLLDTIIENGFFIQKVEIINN

[6] = molecular target: T3, Receptor-histidine kinase AgrC (Staphylococcus aureus) (UniProt O07911); assay: Activation of AgrC in early exponential phase Staphylococcus aureus SA502A assessed as beta-lactamase activity incubated for 55 mins by spectrophotometric method
T3 sequence (whole entry): T2 sequence (O07911 whole entry)

[7] = molecular target: T2, Receptor-histidine kinase AgrC; assay: Inhibition of AgrC in mid-exponential phase Staphylococcus aureus RN8463 assessed as beta-lactamase activity incubated for 80 mins by spectrophotometric method
[8] = system: Staphylococcus aureus; assay: Agonist activity at AgrC-2 in Staphylococcus aureus RN9372 incubated for 60 to 90 mins by beta-lactamase reporter gene assay
[9] = Inhibition of AgrC-1 in Staphylococcus aureus RN9222 incubated for 60 to 90 mins in presence of AIP agonist by beta-lactamase reporter gene assay
[10] = Agonist activity at AgrC-3 in Staphylococcus aureus incubated for 60 to 90 mins in presence of AIP agonist by beta-lactamase reporter gene assay
[11] = Agonist activity at AgrC-4 in Staphylococcus aureus RN9371 incubated for 60 to 90 mins in presence of AIP agonist by beta-lactamase reporter gene assay
[12] = Inhibition of AgrC-1 Staphylococcus aureus RN10829 incubated for 45 mins by beta-lactamase reporter gene assay
[13] = system: Staphylococcus aureus; assay: Agonist activity at AgrC-3 in Staphylococcus aureus incubated for 60 to 90 mins by beta-lactamase reporter gene assay
[14] = Inhibition of AgrC-2 in Staphylococcus aureus RN9372 incubated for 60 to 90 mins in presence of AIP agonist by beta-lactamase reporter gene assay
[15] = Inhibition of AgrC-1 in Staphylococcus aureus AH1677 incubated for 24 hrs by fluorescence assay
[16] = Drug degradation in ammonium carbonate solution 0.3 mg after 8 hrs after RP-HPLC analysis; type: physicochemical; details: read-out: Drug degradation
[17] = Inhibition of AgrC-2 in Staphylococcus aureus AH430 incubated for 24 hrs by fluorescence assay
[18] = Inhibition of AgrC-3 in Staphylococcus aureus AH1747 incubated for 24 hrs by fluorescence assay
[19] = Inhibition of AgrC-4 in Staphylococcus aureus AH1872 incubated for 24 hrs by fluorescence assay
[20] = Drug degradation in ammonium carbonate solution 0.3 mg after 24 hrs after RP-HPLC analysis; type: physicochemical; details: read-out: Drug degradation
[21] = Drug degradation in ammonium carbonate solution 0.3 mg after 72 hrs after RP-HPLC analysis; type: physicochemical; details: read-out: Drug degradation
[22] = molecular target: T3, Receptor-histidine kinase AgrC (Staphylococcus aureus); assay: Activation of AgrC in early exponential phase Staphylococcus aureus RN6390B assessed as beta-lactamase activity incubated for 55 mins by spectrophotometric method
[23] = molecular target: T2, Receptor-histidine kinase AgrC; assay: Inhibition of AgrC in mid-exponential phase Staphylococcus aureus SA502A assessed as beta-lactamase activity incubated for 80 mins by spectrophotometric method
[24] = system: Staphylococcus aureus; assay: Agonist activity at AgrC-4 in Staphylococcus aureus RN9371 incubated for 60 to 90 mins by beta-lactamase reporter gene assay
[25] = system: Staphylococcus aureus; assay: Agonist activity at AgrC-1 in Staphylococcus aureus RN9222 incubated for 60 to 90 mins by beta-lactamase reporter gene assay
[26] = Inhibition of AgrC-1 Staphylococcus aureus RN6390B by agr-blaZ reporter gene assay
[27] = Inhibition of AgrC-2 Staphylococcus aureus SA564 by agr-blaZ reporter gene assay

In the case of `CC(C)[C@H](NC(=O)[C@H](CO)NC(=O)[C@@H](N)CC(=O)O)C(=O)N[C@H]1CSC(=O)[C@H](Cc2ccccc2)NC(=O)[C@H](Cc2ccc(O)cc2)NC(=O)[C@H](CO)NC(=O)[C@H](C)NC1=O` (H-DSVCASYF; thioester 4-C), the IC50 [1] is reported as > 1000 nM, the IC50 [2] is reported as 13 nM and the IC50 [3] is reported as > 1000 nM. It also gave an Activity [4] of 53.3 U/mg.
Work on `CC(C)C[C@@H]1NC(=O)[C@H](CO)NC(=O)[C@H](CO)NC(=O)[C@@H](NC(=O)[C@H](C)NC(=O)[C@H](CC(N)=O)NC(=O)[C@@H](NC(=O)CN)C(C)C)CSC(=O)[C@H](Cc2ccccc2)NC1=O` (H-GVNACSSLF; thioester 5-C) yielded an IC50 [5] of 2.9 nM, an ED50 [6] of 3.6 nM and an IC50 [7] of 3.2 nM. The ED50 [8] was 30 nM, the IC50 [9] was 40 nM and the IC50 [10] was 1 nM. For the same molecule, the IC50 [11] was 86 nM and the IC50 [12] was 12 nM.
Work on `CC(C)C[C@@H]1NC(=O)[C@H](CO)NC(=O)[C@H](CO)NC(=O)[C@@H](NC(=O)[C@H](C)NC(=O)[C@H](CC(N)=O)NC(=O)[C@@H](NC(=O)CN)C(C)C)COC(=O)[C@H](Cc2ccccc2)NC1=O` (H-GVNASSSLF; ester 5-C) yielded an IC50 [5] of 7.9 nM.
In the case of `CC(C)C[C@@H]1NC(=O)[C@H](CO)NC(=O)[C@H](CO)NC(=O)[C@@H](NC(=O)[C@H](C)NC(=O)[C@H](CC(N)=O)NC(=O)[C@@H](NC(=O)CN)C(C)C)CNC(=O)[C@H](Cc2ccccc2)NC1=O` (H-GVNA[Dap]SSLF; lactam 5-C), the IC50 [5] is reported as < 1 nM.
`CC[C@H](C)[C@H](N)C(=O)N[C@@H](CC(N)=O)C(=O)N[C@H]1CSC(=O)[C@H](CC(C)C)NC(=O)[C@H](CC(C)C)NC(=O)[C@H](Cc2ccccc2)NC(=O)[C@H](CC(=O)O)NC1=O` (H-INCDFLL; thioester 3-C) showed an ED50 [13] of 26 nM, an IC50 [9] of 70 nM and an IC50 [14] of 6 nM. It also gave an IC50 [11] of 150 nM, an IC50 [15] of 5.05 nM and a degraded at 8 h [16] of 100%.
Work on `CC[C@H](C)[C@H](N)C(=O)N[C@@H](CC(N)=O)C(=O)N[C@H]1CNC(=O)[C@H](CC(C)C)NC(=O)[C@H](CC(C)C)NC(=O)[C@H](Cc2ccccc2)NC(=O)[C@H](C)NC1=O` (H-IN[Dap]AFLL; lactam 3-C) yielded an IC50 [15] of 1.2 nM, an IC50 [17] of 2.19 nM and an IC50 [18] of 0.0551 nM. The IC50 [19] was 0.192 nM, the degraded at 24 h [20] was 10% and the degraded at 72 h [21] was 40%.
`CC[C@H](C)[C@@H]1NC(=O)[C@H](Cc2ccccc2)NC(=O)[C@H](CC(=O)O)NC(=O)[C@@H](NC(=O)[C@@H](NC(=O)[C@H](CO)NC(=O)[C@@H](N)Cc2ccc(O)cc2)[C@@H](C)O)CSC(=O)[C@H](CCSC)NC1=O` (H-YSTCDFIM; thioester 4-C) gave an ED50 [22] of 10.2 nM, an IC50 [23] of 3.4 nM and an IC50 [7] of 3.1 nM. The ED50 [24] was 26 µM, the ED50 [25] was 28 nM and the IC50 [14] was 25 nM. It also gave an IC50 [10] of 3 nM.
With `CC[C@H](C)[C@@H]1NC(=O)[C@H](Cc2ccccc2)NC(=O)[C@H](Cc2ccc(O)cc2)NC(=O)[C@@H](NC(=O)[C@@H](NC(=O)[C@H](CO)NC(=O)[C@@H](N)Cc2ccc(O)cc2)[C@@H](C)O)CSC(=O)[C@H](CCSC)NC1=O` (H-YSTCYFIM; thioester 4-C) the ED50 [24] was 0.013 µM, the ED50 [25] was 62 nM and the IC50 [14] was 4 nM. For the same molecule, the IC50 [10] was 1 nM.
With `CC[C@H](C)[C@@H]1NC(=O)[C@H](Cc2ccccc2)NC(=O)[C@H](C)NC(=O)[C@@H](NC(=O)[C@@H](NC(=O)[C@H](CO)NC(=O)CCCOc2ccc(Cc3ccccc3)cc2)[C@@H](C)O)CSC(=O)[C@H](CCSC)NC1=O` (X1-STCAFIM; thioester 3-C) the IC50 [26] was 295 nM and the IC50 [27] was 19 nM.
`CC[C@H](C)[C@@H]1NC(=O)[C@H](Cc2ccccc2)NC(=O)[C@H](C)NC(=O)[C@@H](NC(=O)[C@@H](NC(=O)[C@H](CO)NC(=O)CCCOc2ccc(C(=O)c3ccccc3)cc2)[C@@H](C)O)CSC(=O)[C@H](CCSC)NC1=O` (X2-STCAFIM; thioester 3-C) showed an IC50 [26] of 21 nM and an IC50 [27] of 4 nM.
